Results on 21 compounds are retold here after US20150203517A1, “Prodrugs of Compounds that Enhance Antifungal Activity and Compositions of Said Prodrugs” (priority 2014, published 2015).

Data set [1] in a line: Saline solubility at 1.00 mg/mL and 0.50 mg/mL (with pH by indicator paper). The settings on record: for pH at 1.00 mg/mL of MGCD290 in saline: final concentration of hydroxamate 1 1.00 mg/mL, pH indicator paper; for solubility at 1 h: saline or isotonic, thermodynamic from solid, centrifuged, soluble = no precipitate formed. The format is physicochemical. As to the method: Assays were performed to determine the saline solubility at 1.00 and 0.50 mg/ml and the stability of certain of the prodrug compounds of Examples 1-111. The following procedures were used.
Step 1. Sample preparation. An amount of the compound sample was precisely weighed to correspond to around 5 mg of the hydroxamate of compound 1, taking into account the mass of the leaving group and the salt factor if applicable. The sample was placed in a 16×125 mm glass screw cap tube. Saline was added so that the final concentration of hydroxamate 1 was 1.00 mg/mL. The pH was measured with pH indicator paper. The tube was shaken for 1 hour on a Vortex apparatus then centrifuged at 3000 rpm (1800 rcf) for 5 minutes. If the compound example was soluble (no precipitate formed) the procedure continued to step 2. If a precipitate formed then the sample was diluted with saline so that the final concentration of the hydroxamate of compound 1 was 0.50 mg/mL, and the shaking and centrifuging steps were repeated. If the compound example was soluble (no precipitate formed) the procedure continued to step 2. If a precipitate formed the sample was discarded. Step 2. HPLC analysis. A 500 μL aliquot of a sample solution prepared according to Step 1 was taken up into a 1.5 mL injection vial to which was added 500 μL of saline. The vial was shaken on a Vortex apparatus, injected into the HPLC instrument (UV detection, zero time point) and the retention time and purity of the sample compound were determined. The injection was repeated after 6 hours and 24 hours, and a comparison was made of the retention time, peak areas and level of degradation (if any) using the GDADI50 method.

Data set [2] is described as follows: Conversion of prodrugs to compound 1 in mouse plasma. The data set is classed as in vitro ADME. The settings on record: mouse plasma (Na-Heparin treated). As to the method: Step 1. Sample preparation. A quantity of blank mouse plasma (Na-Heparin treated) was incubated at 37° C. for 30 minutes. An amount of the compound sample was precisely weighed to correspond to around 5.00 mg of the hydroxamate of compound 1, taking into account the mass of the leaving group and the salt factor if applicable. The sample was placed in a 16×125 mm glass screw cap tube. The incubated blank mouse plasma was added so that the final concentration of hydroxamate 1 was 1.00 mg/mL. The sample was sonicated for 30 seconds, shaken for 30 seconds on a Vortex apparatus, and run through the HPLC procedure of Step 2 to get a time point zero value. The samples were stored in an incubator at 37° C., and the HPLC analysis of Step 2 was repeated at 30 minutes and 1 hour
Step 2. Protein precipitation and HPLC analysis of plasma. A 50 μL aliquot of plasma was taken in a 1.5 mL Eppendorf vial, to which was added 200 μL of MeCN. The vial was capped and shaken on a Vortex apparatus for 30 seconds, then centrifuged at 13000 rpm (15700 rcf) for five minutes. When centrifuging was complete, 100 μL of the supernatant was placed in an injection vial containing an insert, to which was added 100 μL of 0.1% formic acid in water. The vial was capped and shaken on a Vortex apparatus for 30 seconds, and the contents were injected into the HPLC-UV instrument, and a comparison was made of the retention time, peak areas and level of degradation (if any) using the GDADI50 method.

[3] abbreviates: 1.00 mg/mL as hydroxamate 1, shaken 1 hour, read-out: Soluble at 1.00 mg/mL of MGCD290 (Y/N).
[4] abbreviates: 0.50 mg/mL as hydroxamate 1, shaken 1 hour, read-out: Soluble at 0.5 mg/mL of MGCD290 (Y/N).

Structures can show the parent of a compound that is named as a salt. Where two headings read alike, the source gives them in different places.

Turning to `COCCOCCOCCOCCOCCOCC(=O)N1CCC(C(=O)ONC(=O)Cc2ccc(CCCCc3ccccc3)cc2)CC1` [Compound 120], the “pH at 1.00 mg/mL of MGCD290 in saline” value in data set [1] is listed as 4.5-5. The solubility at 1 h in data set [1] (setting [3]) is > 1000 µg/mL. Also, the “Prodrug loss at 0.5 hr” value in data set [2] (37° C., 0.5 hr) is given as 100%. Besides, the “Prodrug loss at 1 hr” value in data set [2] (37° C., 1 hr) is 100%. Besides, the “Prodrug solubility in plasma” value in data set [2] (equivalent to 1.00 mg/mL of compound 1, * = Plasma quickly became cloudy) was “Yes”.
For `COCCOCCOCCOCC(=O)N1CCC(CC(=O)ONC(=O)Cc2ccc(CCCCc3ccccc3)cc2)CC1` [Compound 116], the “pH at 1.00 mg/mL of MGCD290 in saline” value in data set [1] was 4.5-5. Moreover, the solubility at 1 h in data set [1] (setting [4]) is < 500 µg/mL; in data set [1] (setting [3]) it was < 1000 µg/mL.
On to `COCCOCCOCC(=O)N1CCC(C(=O)ONC(=O)Cc2ccc(CCCCc3ccccc3)cc2)CC1` [Compound 119], for which the “pH at 1.00 mg/mL of MGCD290 in saline” value in data set [1] is on record as 4.5-5. Moreover, the solubility at 1 h is < 500 µg/mL in data set [1] (setting [4]) and < 1000 µg/mL in data set [1] (setting [3]).
With `COCCOCCOCCOCCOCC(=O)N1CCC(CCC(=O)ONC(=O)Cc2ccc(CCCCc3ccccc3)cc2)CC1` [Compound 113], the “pH at 1.00 mg/mL of MGCD290 in saline” value in data set [1] is given as 5.5-6. For the same compound, the solubility at 1 h was < 500 µg/mL in data set [1] (setting [4]) and < 1000 µg/mL in data set [1] (setting [3]).
In the same order, the values of `COCCOCC(=O)NCCCC[C@H](NC(=O)COCCOC)C(=O)N1CCC[C@H]1C(=O)ONC(=O)Cc1ccc(CCCCc2ccccc2)cc1` [Compound 108] are 4.5-5, < 500 µg/mL and < 1000 µg/mL.
On to `COC(=O)NCCCC[C@H](NC(=O)OC)C(=O)NCCC(=O)ONC(=O)Cc1ccc(CCCCc2ccccc2)cc1` [Compound 155], for which the “pH at 1.00 mg/mL of MGCD290 in saline” value in data set [1] was 4.5-5. Besides, the solubility at 1 h was < 500 µg/mL in data set [1] (setting [4]) and < 1000 µg/mL in data set [1] (setting [3]).
Consider `COCCC(=O)NCC[C@H](NC(=O)CCOC)C(=O)NCCC(=O)ONC(=O)Cc1ccc(CCCCc2ccccc2)cc1` [Compound 152], for which, in data set [1], the “pH at 1.00 mg/mL of MGCD290 in saline” value was 4.5-5. Moreover, the solubility at 1 h in data set [1] (setting [4]) is < 500 µg/mL; in data set [1] (setting [3]), < 1000 µg/mL.
Take `NCCCCCCCC(=O)ONC(=O)Cc1ccc(CCCCc2ccccc2)cc1` [Compound 7, N-(8-aminooctanoyloxy)-2-(4-(4-phenylbutyl)phenyl)acetamide hydrochloride]: the solubility at 1 h was < 500 µg/mL in data set [1] (setting [4]) and < 1000 µg/mL in data set [1] (setting [3]).
As for `CN1CCN(C(=O)ONC(=O)Cc2ccc(CCCCc3ccccc3)cc2)CC1.Cl` [Compound 45], in data set [1], the “pH at 1.00 mg/mL of MGCD290 in saline” value is on record as 4-4.5. In addition, the solubility at 1 h is < 500 µg/mL in data set [1] (setting [4]) and < 1000 µg/mL in data set [1] (setting [3]).
Regarding `CC(C)NC(=O)ONC(=O)Cc1ccc(CCCCc2ccccc2)cc1` [Compound 73, N-(Isopropylcarbamoyloxy)-2-(4-(4-phenylbutyl)phenyl)acetamide], the “pH at 1.00 mg/mL of MGCD290 in saline” value in data set [1] was 4.5-5. In addition, the solubility at 1 h in data set [1] (setting [4]) was < 500 µg/mL; in data set [1] (setting [3]) it was < 1000 µg/mL.
Consider `COCCOCCOCCOCCOCC(=O)N[C@@H](C)CC(=O)ONC(=O)Cc1ccc(CCCCc2ccccc2)cc1` [Compound 88], for which the “pH at 1.00 mg/mL of MGCD290 in saline” value in data set [1] is 4.5-5. The solubility at 1 h is < 500 µg/mL in data set [1] (setting [4]) and < 1000 µg/mL in data set [1] (setting [3]).
As for `O=C(Cc1ccc(CCCCc2ccccc2)cc1)NOC(=O)CN1C(=O)OC[C@@H]1c1ccccc1` [Compound 52A], in data set [1], the “pH at 1.00 mg/mL of MGCD290 in saline” value was 4.5-5. The results for the solubility at 1 h in data set [1] (setting [4]) and in data set [1] (setting [3]) were < 500 µg/mL and < 1000 µg/mL, respectively.
`COCCC(=O)NCCCC[C@H](NC(=O)CCOC)C(=O)NCCC(=O)ONC(=O)Cc1ccc(CCCCc2ccccc2)cc1` [Compound 148]: the “pH at 1.00 mg/mL of MGCD290 in saline” value in data set [1] is listed as 4.5-5. Also, the figures for the solubility at 1 h in data set [1] (setting [4]) and in data set [1] (setting [3]) were < 500 µg/mL and < 1000 µg/mL, respectively.
With `COCCOCCOCCOCCOCCOCC(=O)N1CCC(OCC(=O)ONC(=O)Cc2ccc(CCCCc3ccccc3)cc2)CC1` [Compound 127], the “pH at 1.00 mg/mL of MGCD290 in saline” value in data set [1] is reported as 4.5-5. Also, the solubility at 1 h in data set [1] (setting [4]) was < 500 µg/mL; in data set [1] (setting [3]), < 1000 µg/mL.
In the case of `COC(=O)NCC1(C(=O)ONC(=O)Cc2ccc(CCCCc3ccccc3)cc2)CC1` [Compound 53], the “pH at 1.00 mg/mL of MGCD290 in saline” value in data set [1] is 4.5-5. Moreover, the figures for the solubility at 1 h in data set [1] (setting [4]) and in data set [1] (setting [3]) were < 500 µg/mL and < 1000 µg/mL, respectively.
For the compound `COCCC(=O)NCCC[C@H](NC(=O)CCOC)C(=O)NCCC(=O)ONC(=O)Cc1ccc(CCCCc2ccccc2)cc1` [Compound 156], in data set [1], the “pH at 1.00 mg/mL of MGCD290 in saline” value is given as 4.5-5. The solubility at 1 h was < 500 µg/mL in data set [1] (setting [4]) and < 1000 µg/mL in data set [1] (setting [3]).
As for `CCC(=O)ONC(=O)Cc1ccc(CCCCc2ccccc2)cc1` [Compound 52E], the solubility at 1 h is < 500 µg/mL in data set [1] (setting [4]) and < 1000 µg/mL in data set [1] (setting [3]).
As to `Cl.O=C(Cc1ccc(CCCCc2ccccc2)cc1)NOC(=O)CCN1CCNCC1=O` [Compound 128, N-(3-(2-oxopiperazin-1-yl)propanoyloxy)-2-(4-(4-phenylbutyl)phenyl) acetamide hydrochloride], the “pH at 1.00 mg/mL of MGCD290 in saline” value in data set [1] is 4.5-5. Besides, the solubility at 1 h in data set [1] (setting [3]) was > 1000 µg/mL.
For `COCCOCCOCCOCCOCCOCC(=O)N1CCN(C(=O)ONC(=O)Cc2ccc(CCCCc3ccccc3)cc2)CC1` [Compound 82], the “pH at 1.00 mg/mL of MGCD290 in saline” value in data set [1] was 4.5-5. Moreover, the solubility at 1 h in data set [1] (setting [3]) is > 1000 µg/mL.
Take `NCCCC[C@H](N)C(=O)N1CCC[C@H]1C(=O)ONC(=O)Cc1ccc(CCCCc2ccccc2)cc1` [Compound 106, N-((S)-1-((S)-2,6-Diaminohexanoyl)pyrrolidine-2-carbonyloxy)-2-(4-(4-phenylbutyl)phenyl) acetamide dihydrochloride]: in data set [1], the “pH at 1.00 mg/mL of MGCD290 in saline” value is listed as 3.5-4. For the same compound, the results for the solubility at 1 h in data set [1] (setting [4]) and in data set [1] (setting [3]) were < 500 µg/mL and < 1000 µg/mL, respectively.
As to `COCC(=O)NCCCC[C@H](NC(=O)COC)C(=O)NCCC(=O)ONC(=O)Cc1ccc(CCCCc2ccccc2)cc1` [Compound 67], the “pH at 1.00 mg/mL of MGCD290 in saline” value in data set [1] is reported as 4.5-5. Further, the results for the solubility at 1 h in data set [1] (setting [4]) and in data set [1] (setting [3]) were < 500 µg/mL and < 1000 µg/mL, respectively.
